Among the data in paper PMC8548585, “Triazolopyrimidine herbicides are potent inhibitors of Aspergillus fumigatus acetohydroxyacid synthase and potential antifungal drug leads” (Scientific Reports, 2021) are MIC and Ki values, retold here.

SMILES strings stand for the structures.

The subject of one experiment is A. fumigatus. Nature of the experiment: Antifungal susceptibility assay (broth microdilution MIC). It counts as cell-based. As to conditions: Aspergillus fumigatus; A. fumigatus strain ATCC MYAA 3626, 35 °C, 48 h, no observable growth.
The next experiment relates to A. nidulans. The description is as above. The settings on record: Aspergillus nidulans, 35 °C, 48 h, no observable growth. It is filed as cell-based.
The test system of the next experiment is A. niger. The description is as above. It counts as cell-based. The settings on record: Aspergillus niger, 35 °C, 48 h, no observable growth.
For another experiment, the system named is A. flavus. The experiment is described as above. It is filed as cell-based. The settings on record: Aspergillus flavus, 35 °C, 48 h, no observable growth.
Experiment [1] deals with CaAHAS (C. albicans AHAS). Further details: method as in earlier work. As to conditions: shown for comparison; ref 13 (Garcia et al.); cited from earlier work.

The term MIC denotes the lowest concentration that inhibits growth of the organism. Read a high MIC as a need for much substance. For orientation: Ki means a measure of affinity in units of concentration, obtained from inhibition or displacement. In the case of `CCOc1nc(F)cc2nc(S(=O)(=O)Nc3c(Cl)cccc3C(=O)OC)nn12` [CSM], the minimal inhibitory concentration (MIC) against A. fumigatus, with A. nidulans, in the experiment on A. niger and against A. flavus was over 100 µg/mL each time. In addition, the inhibition constant (Ki) in experiment [1] was 0.0046 ± 0.0012 µM.
For `COc1cc(OC)n2nc(NS(=O)(=O)c3c(C(F)(F)F)ccnc3OC)nc2n1` [PYS], the minimal inhibitory concentration (MIC) in the experiment on A. fumigatus, against A. nidulans, against A. niger and in the experiment on A. flavus was over 100 µg/mL each time. Further, the Ki in experiment [1] is 0.212 ± 0.018 µM.
With `COC(=O)c1csc(C)c1S(=O)(=O)NC(=O)n1nc(OC)n(C)c1=O` [TCM], the MIC in the experiment on A. fumigatus, against A. nidulans, against A. niger and against A. flavus was over 100 µg/mL each time. For the same compound, in experiment [1], the Ki is 28 µM.
